Key:
Hela = test: Cell proliferation assay (CCK8), Hela; type: cell-based; details: Homo sapiens, cells incubated with compounds for 24 h
Method: (§1) CCK8 is much more convenient and helpful than MTT for analyzing cell proliferation, because it can be reduced to soluble formazan by dehydrogenase in mitochondria and has little toxicity to cells. Cell proliferation was determined using CCK8 dye (Beyotime Inst. Biotech., Nanjing, China) according to the manufacturer's instructions. Briefly, 1–5 × 10^3 cells per well were seeded on a 96-well plate, and grown at 37 °C for 12 h. Subsequently, cells were treated with all synthesized compounds at increasing concentrations in the presence of 10% FBS for 24 h. After addition of 10 μL CCK8 dyeto each well, cells were incubated at 37 °C for 2 h and plates were read on a Victor-V multilabel counter (Perkin-Elmer, Männedorf, Switzerland) using the default […]. Percent inhibition or IC50 values of compounds were calculated by comparison with DMSO-treated control wells.

A431 = test: Cell proliferation assay (CCK8), A431; type: cell-based; details: Homo sapiens, A-431, cells incubated with compounds for 24 h
Method: as §1

HepG2 = test: Cell proliferation assay (CCK8), HepG2; type: cell-based; details: for IC50: Homo sapiens, HepG2, cells incubated with compounds for 24 h, CCK8
Method: as §1

EGFR = biological target: T1, EGFR (Homo sapiens, UniProt P00533); test: EGFR kinase autophosphorylation assay (DELFIA/Time Resolved Fluorometry); type: biochemical; details: enzyme incubated with compounds for 70 min
T1 construct: EGFR cytoplasmic domain (EGFR-CD, amino acids 645–1186); (His)6 (N); made in house; host or cells: Sf-9 insect cells (baculovirus)
Method: A sequence that encodes (His)6 was located at the 5' upstream to the EGFR sequences. Sf-9 cells were infected for 3 days for protein expression. Sf-9 cell pellets were solubilized at 0 °C in a buffer at pH 7.4 containing 50 mM HEPES, 10 mM NaCl, 1% Triton, 10 μM ammonium molybdate, 100 μM sodium vanadate, 10 μg/mL aprotinin, 10 μg/mL leupeptin, 10 μg/mL pepstatin, and 16 μg/mL benzamidine HCl for 20 min followed by 20 min centrifugation. Crude extract supernatant was passed through an equilibrated Ni-NTA superflow packed column and washed with 10 mM and then 100 mM imidazole to remove nonspecifically bound material. Histidine tagged proteins were eluted with 250 and 500 mM imidazole and dialyzed against 50 mM NaCl, 20 mM HEPES, 10% glycerol, and 1 μg/mL each of aprotinin, leupeptin, and pepstatin for 2 h. The entire purification procedure was performed at 4 °C or on ice.
EGFR kinase assays was set up to assess the level of autophosphorylation based on DELFIA/Time Resolved Fluorometry. […] In each well, 10 μL compound was incubated with 10 μL (5 ng for EGFR) recombinant enzyme (1:80 dilution in 100 mM HEPES) for 10 min at room temperature. Then, 10 μL of 5× buffer (containing 20 mM HEPES, 2 mM MnCl2, 100 μM Na3VO4, and 1 mM DTT) and 20 μL of 0.1 mM ATP-50 mM MgCl2 were added for 1 h. Positive and negative controls were included in each plate by incubation of enzyme with or without ATP-MgCl2.
At the end of incubation, liquid was aspirated, and plates were washed three times with wash buffer. A 75 μL (400 ng) sample of europium labeled anti-phosphotyrosine antibody was added to each well for another 1 h of incubation. After washing, enhancement solution was added and the signal was detected by Victor (Wallac Inc., Männedorf, Switzerland) with excitation at 340 nm and emission at 615 nm. The percentage of autophosphorylation inhibition by the compounds was calculated using the following equation: 100% − [[…]] (1)
The IC50 was obtained from curves of percentage inhibition with eight concentrations of compound.

HepG2 cell migration = test: Cell migration assay (Trans well); type: cell-based; details: 0.06, 0.08, 0.1 μM, 24 h
Method: A cell migration assay was conducted as described previously (Qian et al.), with a slight modification. In brief, the cells were serum-starved overnight, and the transwells were coated with […] (ECL) cell attachment matrix (Upstate Biotechnology, Lake Placid, NY, USA) at 20 μg/mL. The top chambers of transwells were loaded with 0.2 mL of cells (4 × 10^5 cells/mL) in serum-free media, and the bottom chambers were loaded with 0.6 mL of MEM media containing 0.5% FBS. The cells were incubated in the transwells at 37 °C in 5% CO2 for 24 h. A microplate reader was used to measure the optical density of the eluted solutions in order to determine their migration values. Mean values were obtained from three individual experiments.

HepG2 cell = test: Apoptosis assay by flow cytometry (AnnexinV-FITC/PI); type: cell-based
Method: Approximately 10^5 cells/well were plated in a 24 well plate and allowed to adhere. After 24 h, the medium was replaced with fresh culture medium containing compounds D9 at final concentrations of 4, 6, 8 μM. Nontreated wells received an equivalent volume of ethanol (<0.1%). They were trypsinized, washed in PBS and centrifuged at 2,000 rpm for 5 min. The pellet was then resuspended in 500 μL of staining solution (containing 5 μL AnnexinV-FITC and 5 μL PI in Binding Buffer), mixed gently and incubated for 15 min at room temperature (15–25 °C) in dark. The sample were then read in FACScalibur flow cytometer (BD Company, New Jersey, USA) at 488 nm excitation.

T1 sequence (P00533 669-1210): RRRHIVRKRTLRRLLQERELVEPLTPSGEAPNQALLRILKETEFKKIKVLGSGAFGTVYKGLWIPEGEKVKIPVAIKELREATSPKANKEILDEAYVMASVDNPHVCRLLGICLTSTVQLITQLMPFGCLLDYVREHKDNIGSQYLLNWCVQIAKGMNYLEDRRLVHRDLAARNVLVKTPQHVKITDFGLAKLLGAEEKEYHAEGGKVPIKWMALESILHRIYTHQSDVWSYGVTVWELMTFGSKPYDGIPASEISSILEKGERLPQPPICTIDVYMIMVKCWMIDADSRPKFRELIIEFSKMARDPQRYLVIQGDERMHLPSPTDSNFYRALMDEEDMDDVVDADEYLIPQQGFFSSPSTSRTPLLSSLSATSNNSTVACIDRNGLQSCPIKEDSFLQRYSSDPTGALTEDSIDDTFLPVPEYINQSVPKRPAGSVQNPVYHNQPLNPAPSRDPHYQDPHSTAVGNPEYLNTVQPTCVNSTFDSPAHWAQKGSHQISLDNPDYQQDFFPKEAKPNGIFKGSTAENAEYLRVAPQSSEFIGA

| SMILES | IC50 (Hela) [µM] | IC50 (A431) [µM] | IC50 (HepG2) [µM] | IC50 (EGFR) [µM] | melting point [°C] | amount of migrating HepG2 cells vs control (HepG2 cell migration) | percentage of cell apoptosis (HepG2 cell; HepG2, 4 μM) [%] | percentage of cell apoptosis (HepG2 cell; HepG2, 6 μM) [%] | percentage of cell apoptosis (HepG2 cell; HepG2, 8 μM) [%] | effect on HepG2 cell survival ratios (CCK8 assay) (HepG2; concentrations lower than 0.1 μM) |
| --- | --- | --- | --- | --- | --- | --- | --- | --- | --- | --- |
| O=C(O)/C=C/c1ccc2c(c1)OCCCCO2 [C, (E)-3-(2,3,4,5-tetrahydrobenzo[b][1,4]dioxocin-8-yl)acrylic acid] | 105 | 41 | 56 | – | – | – | – | – | – | – |
| O=C(O)/C=C/c1ccc(O)c(O)c1 [Caffeic acid] | 544 | 93.5 | 225 | – | – | – | – | – | – | – |
| O=C(/C=C/c1ccc2c(c1)OCCCCO2)Nc1ccc([N+](=O)[O-])cc1 [Compound D1, (E)-N-(4-nitrophenyl)-3-(2,3,4,5-tetrahydrobenzo[b][1,4]dioxocin-8-yl)acrylamide] | 13.6 | 16.6 | 3.47 | 7.25 | 125 to 126 | – | – | – | – | – |
| O=C(/C=C/c1ccc2c(c1)OCCCCO2)Nc1ccccc1[N+](=O)[O-] [Compound D2, (E)-N-(2-nitrophenyl)-3-(2,3,4,5-tetrahydrobenzo[b][1,4]dioxocin-8-yl)acrylamide] | 28.2 | 24.7 | 9.4 | – | 119 to 120 | – | – | – | – | – |
| COc1ccc(NC(=O)/C=C/c2ccc3c(c2)OCCCCO3)cc1OC [Compound D3, (E)-N-(3,4-dimethoxyphenyl)-3-(2,3,4,5-tetrahydrobenzo[b][1,4]dioxocin-8-yl)acrylamide] | 19.6 | 8.96 | 10.2 | – | 171 to 172 | – | – | – | – | – |
| COc1cc(NC(=O)/C=C/c2ccc3c(c2)OCCCCO3)cc(OC)c1 [Compound D4, (E)-N-(3,5-dimethoxyphenyl)-3-(2,3,4,5–tetrahydrobenzo[b][1,4]dioxocin-8-yl)acrylamide] | 23.7 | 10 | 11.1 | – | 115 to 116 | – | – | – | – | – |
| COc1ccc(OC)c(NC(=O)/C=C/c2ccc3c(c2)OCCCCO3)c1 [Compound D5, (E)-N-(2,5-dimethoxyphenyl)-3-(2,3,4,5-tetrahydrobenzo[b][1,4]dioxocin-8-yl)acrylamide] | 21.4 | 9.31 | 10.5 | – | 110 to 111 | – | – | – | – | – |
| COc1cc(NC(=O)/C=C/c2ccc3c(c2)OCCCCO3)cc(OC)c1OC [Compound D6, (E)-3-(2,3,4,5-tetrahydrobenzo[b][1,4]dioxocin-8-yl)-N-(3,4,5-trimethoxyphenyl)acrylamide] | 25.7 | 11.7 | 13.2 | – | 145 to 146 | – | – | – | – | – |
| COc1cccc(NC(=O)/C=C/c2ccc3c(c2)OCCCCO3)c1 [Compound D7, (E)-N-(3-methoxyphenyl)-3-(2,3,4,5-tetrahydrobenzo[b][1,4]dioxocin-8-yl)acrylamide] | 8.71 | 12.6 | 3.16 | 6.78 | 104 to 105 | – | – | – | – | – |
| COc1ccc(NC(=O)/C=C/c2ccc3c(c2)OCCCCO3)cc1 [Compound D8, (E)-N-(4-methoxyphenyl)-3-(2,3,4,5-tetrahydrobenzo[b][1,4]dioxocin-8-yl)acrylamide] | 7.04 | 7.42 | 0.95 | 0.85 | 112 to 113 | – | – | – | – | – |
| CCOc1ccc(NC(=O)/C=C/c2ccc3c(c2)OCCCCO3)cc1 [Compound D9, (E)-N-(4-ethoxyphenyl)-3-(2,3,4,5-tetrahydrobenzo[b][1,4]dioxocin-8-yl)acrylamide] | 6.75 | 7.03 | 0.79 | 0.36 | 137 to 139 | less than control group | 17.99 | 26.83 | 41.1 | no effect |
| O=C(/C=C/c1ccc2c(c1)OCCCCO2)Nc1cccc(Cl)c1 [Compound D10, (E)-N-(3-chlorophenyl)-3-(2,3,4,5-tetrahydrobenzo[b][1,4]dioxocin-8-yl)acrylamide] | 18.5 | 20 | 6.87 | 12.4 | 109 to 110 | – | – | – | – | – |
| O=C(/C=C/c1ccc2c(c1)OCCCCO2)Nc1ccccc1Cl [Compound D11, (E)-N-(2-chlorophenyl)-3-(2,3,4,5-tetrahydrobenzo[b][1,4]dioxocin-8-yl)acrylamide] | 16.7 | 18.9 | 4.94 | 8.97 | 127 to 128 | – | – | – | – | – |
| Cc1cccc(NC(=O)/C=C/c2ccc3c(c2)OCCCCO3)c1 [Compound D12, (E)-3-(2,3,4,5-tetrahydrobenzo[b][1,4]dioxocin-8-yl)-N-m-tolylacrylamide] | 10.8 | 14.2 | 6.28 | 12 | 112 to 113 | – | – | – | – | – |
| Cc1ccc(Cl)cc1NC(=O)/C=C/c1ccc2c(c1)OCCCCO2 [Compound D13, (E)-N-(5-chloro-2-methylphenyl)-3-(2,3,4,5-tetrahydrobenzo[b][1,4]dioxocin-8-yl)acrylamide] | 24.3 | 14.1 | 15.2 | – | 107 to 108 | – | – | – | – | – |
| O=C(/C=C/c1ccc2c(c1)OCCCCO2)Nc1ccc(Br)cc1F [Compound D14, (E)-N-(4-bromo-2-fluorophenyl)-3-(2,3,4,5-tetrahydrobenzo[b][1,4]dioxocin-8-yl)acrylamide] | 30.8 | 22.6 | 9.03 | – | 110 to 111 | – | – | – | – | – |
| O=C(/C=C/c1ccc2c(c1)OCCCCO2)NCc1ccccc1F [Compound D15, (E)-N-(2-fluorobenzyl)-3-(2,3,4,5-tetrahydrobenzo[b][1,4]dioxocin-8-yl)acrylamide] | 5.15 | 17.8 | 1.48 | 2.18 | 86 to 87 | – | – | – | – | – |
| O=C(/C=C/c1ccc2c(c1)OCCCCO2)Nc1ccc(Br)cc1 [Compound D16, (E)-N-(4-bromophenyl)-3-(2,3,4,5-tetrahydrobenzo[b][1,4]dioxocin-8-yl)acrylamide] | 9.04 | 7.96 | 2.38 | 3.52 | 107 to 108 | – | – | – | – | – |
| O=C(/C=C/c1ccc2c(c1)OCCCCO2)Nc1cccc(F)c1 [Compound D17, (E)-N-(3-fluorophenyl)-3-(2,3,4,5-tetrahydrobenzo[b][1,4]dioxocin-8-yl)acrylamide] | 19.5 | 21.6 | 7.9 | – | 116 to 117 | – | – | – | – | – |
| C#Cc1cccc(Nc2ncnc3cc(OCCOC)c(OCCOC)cc23)c1 [Erlotinib, reference compound] | – | 0.04 | 0.08 | – | – | – | – | – | – | – |

Source: paper PMC6271756, “Synthesis of Caffeic Acid Amides Bearing 2,3,4,5-Tetra-hydrobenzo[b][1,4]dioxocine Moieties and Their Biological Evaluation as Antitumor Agents” (Molecules, 2014)
